{"source": "patent US7740835B2", "about": "“Anaerobic bacterium as a drug for cancer gene therapy” (Anaeropharma Science Inc., priority 2000, dated 2010)", "test_system": "Lewis lung cancer cells", "assay": "Growth of B. longum in tumor tissues by administering lacturose", "type": "in vivo, mice", "conditions": "B. longum 105-A administered; 1 ml of 20 t lacturose solution intraperitoneally for 8 successive days; analysed on the 9th day", "description": "Lacturose (provided by Nikken Chemicals Co., Ltd.) is a synthetic saccharide not occurring in nature, and it is known that lacturose cannot be metabolized by humans, mice and pigs (Biochem. Biophys. Acta, 110, 635 (1965), Pediatrics, 32, 1033 (1963), Gastroenterology, 47, 26 (1964), Die Nahrung, 11, 39 (1967)). On the other hand, B. longum is capable of growing with lacturose as a carbon source.\nAs a result, the number of B. longum bacteria present of the tumor tissues in the tumor-bearing mouse group given lacturose was 200-times as more as that of the control group not given lacturose."}
{"smiles": "OC[C@H]1O[C@@H](O[C@@H]2[C@@H](CO)OC(O)(CO)[C@H]2O)[C@H](O)[C@@H](O)[C@H]1O", "note": "(stereo partly drawn) [lacturose, 4-0-β-D-galactopyranosyl-D-fructofuranose]", "values": [{"measurement": "number of B. longum bacteria in tumor tissues of the group given lacturose relative to the control group not given lacturose", "result": 200, "unit": "times"}]}
